Among the test systems are SNB-75 CNS; OVCAR-5 ovarian; NCI-H522 lung; RXF 393 renal; SF-295 CNS; SR leukemia; M14 melanoma; HCT-116 colon; MALME-3M melanoma; OVCAR-8 ovarian.
What all share (assay): growth of human tumour cells (NCI), 48 h

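48-hour exposure; five concentrations; linearly interpolated endpoints. Here, GI50 denotes the concentration required for 50% inhibition of growth. At the TGI there is no net growth.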

Consider `O=C(c1ccccc1)N1C2CCC1C(C(F)(F)F)=C2C(F)(F)F`, for which the TGI in the experiment with SNB-75 CNS, with OVCAR-5 ovarian, in the experiment on NCI-H522 lung, in the experiment with RXF 393 renal, with SF-295 CNS and with SR leukemia was more than 100 µM each time. Moreover, the TGI with M14 melanoma, in the experiment on HCT-116 colon, with MALME-3M melanoma and with OVCAR-8 ovarian was more than 100 µM in each case.
As for `C[C@H](Nc1ncnc2nc[nH]c12)c1cc2ccc(F)cc2nc1-c1ccccn1`, the GI50 in the experiment with SNB-75 CNS is 2.68 µM; in the experiment on OVCAR-5 ovarian it was more than 77.2 µM; with NCI-H522 lung, more than 54.1 µM; in the experiment on RXF 393 renal, 4.26 µM; with SF-295 CNS it was 18.8 µM; with SR leukemia, 33.4 µM. The GI50 is more than 100 µM with M14 melanoma, more than 100 µM in the experiment on HCT-116 colon, more than 87.8 µM with MALME-3M melanoma and more than 100 µM in the experiment on OVCAR-8 ovarian. Further, the TGI with SNB-75 CNS is 60.5 µM; in the experiment with OVCAR-5 ovarian, more than 100 µM; in the experiment with NCI-H522 lung, more than 100 µM; in the experiment on RXF 393 renal, 59.2 µM; in the experiment on SF-295 CNS, more than 100 µM; in the experiment on SR leukemia, more than 100 µM. Besides, the TGI in the experiment on M14 melanoma, in the experiment with HCT-116 colon, in the experiment on MALME-3M melanoma and in the experiment with OVCAR-8 ovarian was more than 100 µM throughout.
`Nc1nc2c(s1)CCc1c-2c(Br)n(Cc2ccccc2)c1Br`: the GI50 was 14.5 µM with SNB-75 CNS; 19.8 µM in the experiment with OVCAR-5 ovarian; 2.04 µM in the experiment with NCI-H522 lung; 2.23 µM in the experiment with RXF 393 renal; 16.6 µM with SF-295 CNS; 3.41 µM with SR leukemia. For the same compound, the GI50 was 14.5 µM in the experiment with M14 melanoma, 2.53 µM in the experiment on HCT-116 colon, 3.76 µM in the experiment on MALME-3M melanoma and 6.48 µM in the experiment on OVCAR-8 ovarian. The TGI in the experiment on SNB-75 CNS was 33.1 µM; in the experiment with OVCAR-5 ovarian, 39.3 µM; with NCI-H522 lung, 4.63 µM; in the experiment on RXF 393 renal, 6.38 µM; with SF-295 CNS it was 33.4 µM; in the experiment with SR leukemia, more than 100 µM. Moreover, the TGI in the experiment with M14 melanoma came out at 30.2 µM; in the experiment with HCT-116 colon, 6.43 µM; with MALME-3M melanoma, 15.4 µM; with OVCAR-8 ovarian it was 64.2 µM.
In the case of `NS(=O)(=O)c1ccc(NC2=CC(=O)C(=O)c3ccccc32)cc1`, the TGI in the experiment with SNB-75 CNS, in the experiment with OVCAR-5 ovarian, with NCI-H522 lung, in the experiment on RXF 393 renal, in the experiment with SF-295 CNS and in the experiment on SR leukemia was more than 100 µM throughout. The TGI in the experiment with M14 melanoma, in the experiment on HCT-116 colon, in the experiment with MALME-3M melanoma and with OVCAR-8 ovarian was more than 100 µM each time.
Take `COc1ccc(C(SCC(N)C(=O)O)(c2ccccc2)c2ccccc2)cc1` (stereo unspecified): the GI50 is 0.447 µM with SNB-75 CNS; 4.82 µM with OVCAR-5 ovarian; 0.104 µM in the experiment on NCI-H522 lung; 0.19 µM in the experiment on RXF 393 renal; 0.0948 µM in the experiment on SF-295 CNS; 3.21 µM with SR leukemia. The GI50 was 0.0309 µM in the experiment on M14 melanoma, 0.043 µM with HCT-116 colon, more than 43 µM in the experiment on MALME-3M melanoma and 0.482 µM with OVCAR-8 ovarian. Further, the TGI with SNB-75 CNS was 88.1 µM; with OVCAR-5 ovarian, more than 100 µM; in the experiment with NCI-H522 lung it was more than 100 µM; with RXF 393 renal it was more than 100 µM; in the experiment on SF-295 CNS, more than 100 µM; in the experiment with SR leukemia it was more than 100 µM. Also, the TGI in the experiment with M14 melanoma was 0.126 µM; with HCT-116 colon it was 25.8 µM; in the experiment with MALME-3M melanoma, more than 100 µM; in the experiment with OVCAR-8 ovarian it was more than 100 µM.
With `COc1c(C(=O)c2ccc([N+](=O)[O-])cc2)cc(C(C)(C)C)cc1C(C)(C)C`, the TGI with SNB-75 CNS is more than 100 µM; in the experiment with OVCAR-5 ovarian, more than 100 µM; with NCI-H522 lung, 56.9 µM; in the experiment on RXF 393 renal, 62.2 µM; in the experiment on SF-295 CNS, more than 100 µM; in the experiment on SR leukemia, 64.1 µM. In addition, the TGI in the experiment on M14 melanoma is more than 100 µM; with HCT-116 colon, 62.9 µM; in the experiment with MALME-3M melanoma it was more than 100 µM; with OVCAR-8 ovarian it was more than 100 µM.
As for `CC1CC(=O)Nc2ccccc2N1C(=O)CN1CCC(CCCCN(C)C)CC1` (stereo unspecified), the TGI in the experiment with SNB-75 CNS, with OVCAR-5 ovarian, in the experiment with NCI-H522 lung, in the experiment with RXF 393 renal, in the experiment with SF-295 CNS and with SR leukemia was more than 100 µM in each case. The TGI with M14 melanoma, with HCT-116 colon, with MALME-3M melanoma and in the experiment on OVCAR-8 ovarian was more than 100 µM throughout.
Regarding `O=C1c2ccccc2S(=O)(=O)N1CSC(=S)N1CCCCC1`, the GI50 with SNB-75 CNS is more than 100 µM; in the experiment on OVCAR-5 ovarian it was more than 100 µM; in the experiment with NCI-H522 lung, 2.05 µM; in the experiment with RXF 393 renal it was more than 100 µM; with SF-295 CNS it was more than 100 µM; with SR leukemia it was 0.266 µM. Besides, the GI50 in the experiment on M14 melanoma, in the experiment on HCT-116 colon, in the experiment with MALME-3M melanoma and in the experiment with OVCAR-8 ovarian was more than 100 µM in each case. In addition, the TGI in the experiment on SNB-75 CNS, in the experiment on OVCAR-5 ovarian, in the experiment with NCI-H522 lung, in the experiment on RXF 393 renal, in the experiment on SF-295 CNS and in the experiment on SR leukemia was more than 100 µM each time. The TGI with M14 melanoma, in the experiment with HCT-116 colon, with MALME-3M melanoma and with OVCAR-8 ovarian was more than 100 µM in each case.
Consider `COc1cc(OC)c(/C=C\c2ccnc3ccccc23)c(OC)c1`, for which the TGI in the experiment with OVCAR-5 ovarian was 19.3 µM; in the experiment with NCI-H522 lung, 18 µM; in the experiment on RXF 393 renal, 11.6 µM; with SF-295 CNS, 8.35 µM; in the experiment on SR leukemia it was 12.6 µM; in the experiment on M14 melanoma, 15.2 µM. The TGI with HCT-116 colon came out at 13.3 µM; with MALME-3M melanoma, 16.5 µM.
As to `COc1cc2nc(SCC(=O)Nc3cc(OC)c(OC)c(OC)c3)n(Cc3ccccc3)c(=O)c2cc1OC`, the GI50 in the experiment with SNB-75 CNS was 1.57 µM; in the experiment on OVCAR-5 ovarian it was more than 100 µM; with NCI-H522 lung it was 3.65 µM; in the experiment on RXF 393 renal it was 2.55 µM; in the experiment on SR leukemia, 40.9 µM; in the experiment on M14 melanoma, 16.1 µM. Further, the GI50 with HCT-116 colon was 6.74 µM; with MALME-3M melanoma, 3.3 µM; in the experiment on OVCAR-8 ovarian, 3.46 µM. Also, the TGI in the experiment on SNB-75 CNS was 3.38 µM; in the experiment with OVCAR-5 ovarian, more than 100 µM; in the experiment with NCI-H522 lung it was 32.4 µM; with RXF 393 renal, 8.35 µM; in the experiment on SR leukemia, more than 100 µM; in the experiment with M14 melanoma, more than 100 µM. Also, the TGI with HCT-116 colon was 78.9 µM; in the experiment on MALME-3M melanoma it was more than 100 µM; with OVCAR-8 ovarian it was 34.9 µM.

(Values after PubChem BioAssay (NCI).)
